Test results as given in patent US20220324835A1 (Nurix Therapeutics, Inc., priority 2018, published 2022).
Read-outs that look alike come from different tables or passages of the source.

Key:
[1] = system: T-cell; test: CD25 cell surface staining on T-cells co-stimulated with anti-CD3 and anti-CD28 antibody (Biological Example 2); assay type: cell-based, human; conditions: Homo sapiens, T-cell, primary human total T-cells
Summary of the method: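 No assay protocol given; T-cells stimulated with anti-CD3 alone or anti-CD3 plus anti-CD28, with or without Cbl-b inhibitor. Activation read as IL-2 secretion or CD25 surface staining, expressed as fold over baseline from uninhibited cells […].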

[2] = biological target: Cbl-b (residues 36-427) (Homo sapiens, UniProt Q13191); test: Cbl-b binding assay (SPR, Biacore T200); conditions: 20° C., 1:1 binding model
Cbl-b (residues 36-427), sequence (Q13191 36-427): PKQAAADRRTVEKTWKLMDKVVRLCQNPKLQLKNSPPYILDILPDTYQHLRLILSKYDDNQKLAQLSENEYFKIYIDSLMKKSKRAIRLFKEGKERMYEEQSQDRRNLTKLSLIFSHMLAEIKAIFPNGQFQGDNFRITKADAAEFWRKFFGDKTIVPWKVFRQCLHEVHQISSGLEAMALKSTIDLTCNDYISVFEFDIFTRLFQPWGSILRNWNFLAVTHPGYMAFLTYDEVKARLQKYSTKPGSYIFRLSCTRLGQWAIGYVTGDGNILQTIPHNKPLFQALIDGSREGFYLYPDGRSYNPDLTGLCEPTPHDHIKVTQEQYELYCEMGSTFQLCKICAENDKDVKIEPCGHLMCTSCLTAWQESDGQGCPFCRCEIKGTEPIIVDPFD
Summary of the method: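 Affinities derived from global 1:1 steady-state or kinetic fits of double-referenced, solvent-corrected SPR data, 20 °C, NeutrAvidin-capture chip. Compound series (top 100 or 50 μM, 8–10 points) injected 50 s, 90–180 s dissociation. Asterisked values used 50 mM instead of 100 mM NaCl and 30 nM Src kinase.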

[3] = biological target: Cbl-b (Homo sapiens, UniProt Q13191); test: Cbl-b activity assay (Cbl-b inhibition assay), TR-FRET of Cbl-b interaction with UbcH5B-Ub; assay type: biochemical; conditions: assay buffer with 100 mM NaCl, 60 nM Src kinase; read-out: Cbl-b activity IC50
Cbl-b, sequence (Q13191 36-427): as above
Summary of the method: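 TR-FRET readout of Cbl-b binding to Bodipy-fluorescein N-terminally labeled Ub conjugated to UbcH5B C85K, measured with compound present. After compound incubation, 60 nM Src kinase with 1 mM ATP and 5 mM MgCl2 (final) was added for 1.5 h, then a further 1 h incubation; asterisked values used 50 mM NaCl buffer and 30 nM Src.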

[4] = system: anergic human T-cells; test: Anergic T-cell activation assessed by IFNγ secretion (ionomycin-induced anergy); assay type: cell-based; conditions: anergic T-cells re-challenged with anti-CD3 and anti-CD28 for 24 hours, read-out: IFNγ Fold change from baseline
Source text: Peripheral blood mononuclear cells (PBMC) were obtained either: 1) by using Ficoll-Paque™ (GE Healthcare) for separation of peripheral blood hematopoietic cells from buffy coats of healthy human donors; or 2) directly from LeukoPak donations. Total human primary T-cells were isolated from the PBMCs utilizing negative selection with commercial kits following the manufacturer's protocol (Miltenyi Catalog #130-096-535 (i.e., cocktail of antibodies against surface markers CD14, CD15, CD16, CD19, CD34, CD36, CD56, CD123 and CD235a were incubated with the PBMCs before passing the samples by magnetic beads for removal of cells expressing those surface markers) or StemCells Catalog #17951) to yield >95% CD3+ cells assessed by flow cytometry. The cells were activated with immobilized anti-CD3 antibody (OKT3) and soluble anti-CD28 antibody (28.2) for two days at which time they are washed and allowed to rest for three days in the absence of stimulation. They were then treated with ionomycin (Sigma) for 18-24 hours to induce anergy. Following two washes to remove the ionomycin from the samples, Cbl-b inhibitor compounds were added to the cells at the indicated concentrations (e.g. 10, 1.11 and 0.37 μM) and incubated for 1 hour. The cells were then re-challenged with anti-CD3 antibody and anti-CD28 antibody for 24 hours at which point cell free supernatants were collected and assessed for cytokines (e.g., IFNγ) by ELISA (R&D Systems or Peprotech) or Luminex multiplex kits (Procarta Life Technologies) following manufacturer's protocols.
Cbl-b inhibitors were tested to determine their ability to induce or enhance secretion of cytokines from anergic T-cells (e.g. IFNγ), which is indicative of decreased T-cell tolerance.
Readouts were reported as fold change over baseline. Baseline for this study was the measurement obtained from anergic human T-cells stimulated with immobilized anti-CD3 and soluble anti-CD28, wherein the T-cells were not incubated with a Cbl-b inhibitor (Table 7). For IFNγ changes greater than 2.5-fold over baseline were considered a positive response (Table 7). Compounds were ranked into bins according to their readout as follows for IFNγ: A indicates ≤2.50, B indicates 2.51-4.00 and C indicates >4.01.

[5] = fold change over baseline, 0.3 μM Cbl-b inhibitor, read-out: CD25 staining Anti-CD3/Anti-CD28 stimulation
[6] = fold change over baseline, 1 μM Cbl-b inhibitor, read-out: CD25 staining Anti-CD3/Anti-CD28 stimulation
[7] = fold change over baseline, 4 μM Cbl-b inhibitor, read-out: CD25 staining Anti-CD3/Anti-CD28 stimulation
[8] = 0.3 μM compound, baseline = anti-CD3/anti-CD28 stimulated cells without inhibitor, read-out: CD25 staining, Anti-CD3/Anti-CD28 stimulation, fold change over baseline
[9] = 1 μM compound, baseline = anti-CD3/anti-CD28 stimulated cells without inhibitor, read-out: CD25 staining, Anti-CD3/Anti-CD28 stimulation, fold change over baseline
[10] = 4 μM compound, baseline = anti-CD3/anti-CD28 stimulated cells without inhibitor, read-out: CD25 staining, Anti-CD3/Anti-CD28 stimulation, fold change over baseline

SMILES: Cc1cc(C(=O)Nc2cccc([C@@H](C)Cc3nncn3C)c2)nc(C2CC2)n1 [Compound 325, (S)-2-Cyclopropyl-6-methyl-N-(3-(1-(4-methyl-4H-1,2,4-triazol-3-yl)propan-2-yl)phenyl)pyrimidine-4-carboxamide]
- fold induction at 0.3 µM [1, 5]: 1.01 to 1.3
- fold induction at 1 µM [1, 6]: 1.01 to 1.3
- fold induction at 4 µM [1, 7]: 1.01 to 1.3
- Kd [2]: 0.301 to 1 µM
- IC50 [3]: 0.1 to 0.3 µM
- fold induction at 0.37 µM [4]: ≤ 2.5
- fold induction at 1.11 µM [4]: ≤ 2.5
- fold induction at 10 µM [4]: ≤ 2.5

SMILES: Cn1cnnc1CC1(c2cccc(NC(=O)c3nc4c(C(F)(F)F)cccc4[nH]3)c2)COC1 [Compound 335, N-(3-{3-[(4-methyl-1,2,4-triazol-3-yl)methyl]oxetan-3-yl}phenyl)-4-(trifluoromethyl)-1H-1,3-benzodiazole-2-carboxamide]
- fold induction at 0.3 µM [1, 5]: 1.31 to 1.5
- fold induction at 1 µM [1, 6]: 1.51 to 1.75
- fold induction at 4 µM [1, 7]: 1.51 to 1.75
- Kd [2]: < 0.1 µM
- IC50 [3]: < 0.1 µM
- fold induction at 0.37 µM [4]: ≤ 2.5
- fold induction at 1.11 µM [4]: 2.51 to 4
- fold induction at 10 µM [4]: > 4.01

SMILES: Cc1cc(C(=O)Nc2cccc(C3(Cc4nncn4C)COC3)c2)nc(C2CC2)n1 [Compound 336, 2-cyclopropyl-6-methyl-N-(3-(3-((4-methyl-4H-1,2,4-triazol-3-yl)methyl)oxetan-3-yl)phenyl)pyrimidine-4-carboxamide]
- fold induction at 0.3 µM [1, 5]: 1.31 to 1.5
- fold induction at 1 µM [1, 6]: > 1.76
- fold induction at 4 µM [1, 7]: 1.51 to 1.75
- Kd [2]: < 0.1 µM
- IC50 [3]: < 0.1 µM
- fold induction at 0.37 µM [4]: 2.51 to 4
- fold induction at 1.11 µM [4]: 2.51 to 4
- fold induction at 10 µM [4]: > 4.01

SMILES: Cc1n[nH]c(C)c1-c1cc2c(c(C(F)(F)F)c1)CN(c1cccc(C3(Cc4nncn4C)COC3)c1)C2=O [Compound 385, 6-(3,5-dimethyl-1H-pyrazol-4-yl)-2-(3-{3-[(4-methyl-4H-1,2,4-triazol-3-yl)methyl]oxetan-3-yl}phenyl)-4-(trifluoromethyl)-2,3-dihydro-1H-isoindol-1-one]
- fold induction at 0.3 µM [1, 8]: 1.01 to 1.3
- fold induction at 1 µM [1, 9]: 1.01 to 1.3
- fold induction at 4 µM [1, 10]: 1.31 to 1.5
- Kd [2]: < 0.1 µM
- IC50 [3]: < 0.1 µM
- fold induction at 0.37 µM [4]: ≤ 2.5
- fold induction at 1.11 µM [4]: ≤ 2.5
- fold induction at 10 µM [4]: > 4.01

SMILES: C[C@H](Cc1nncn1C)c1cccc(N2Cc3c(cc(CN4CC(O)C4)cc3C(F)(F)F)C2=O)c1 [Compound 393, (R)-6-((3-hydroxyazetidin-1-yl)methyl)-2-(3-(1-(4-methyl-4H-1,2,4-triazol-3-yl)propan-2-yl)phenyl)-4-(trifluoromethyl)isoindolin-1-one]
- fold induction at 0.3 µM [1, 8]: 1.01 to 1.3
- fold induction at 1 µM [1, 9]: 1.31 to 1.5
- fold induction at 4 µM [1, 10]: 1.31 to 1.5
- Kd [2]: < 0.1 µM
- IC50 [3]: < 0.1 µM
- fold induction at 0.37 µM [4]: ≤ 2.5
- fold induction at 1.11 µM [4]: 2.51 to 4
- fold induction at 10 µM [4]: > 4.01

SMILES: C[C@H](Cc1nncn1C)c1cccc(N2Cc3c(cc(CN4CC(C)(O)C4)cc3C(F)(F)F)C2=O)c1 [Compound 397]
- fold induction at 0.3 µM [1, 8]: 1.01 to 1.3
- fold induction at 1 µM [1, 9]: 1.31 to 1.5
- fold induction at 4 µM [1, 10]: 1.31 to 1.5
- Kd [2]: < 0.1 µM
- IC50 [3]: < 0.1 µM
- fold induction at 0.37 µM [4]: ≤ 2.5
- fold induction at 1.11 µM [4]: > 4.01
- fold induction at 10 µM [4]: > 4.01

SMILES: C[C@H](Cc1nncn1C)c1cccc(N2Cc3c(cc(CN4CC[C@](C)(O)C4)cc3C(F)(F)F)C2=O)c1 [Compound 398, 6-(((S)-3-hydroxy-3-methylpyrrolidin-1-yl)methyl)-2-(3-((R)-1-(4-methyl-4H-1,2,4-triazol-3-yl)propan-2-yl)phenyl)-4-(trifluoromethyl)isoindolin-1-one]
- fold induction at 0.3 µM [1, 8]: 1.01 to 1.3
- fold induction at 1 µM [1, 9]: 1.31 to 1.5
- fold induction at 4 µM [1, 10]: 1.31 to 1.5
- Kd [2]: < 0.1 µM
- IC50 [3]: < 0.1 µM
- fold induction at 0.37 µM [4]: ≤ 2.5
- fold induction at 1.11 µM [4]: > 4.01
- fold induction at 10 µM [4]: > 4.01

SMILES: C[C@H](Cc1nncn1C)c1cccc(N2Cc3c(cc(CN4CC[C@H](F)C4)cc3C(F)(F)F)C2=O)c1 [Compound 399, 6-(((S)-3-fluoropyrrolidin-1-yl)methyl)-2-(3-((R)-1-(4-methyl-4H-1,2,4-triazol-3-yl)propan-2-yl)phenyl)-4-(trifluoromethyl)isoindolin-1-one]
- fold induction at 0.3 µM [1, 8]: 1.01 to 1.3
- fold induction at 1 µM [1, 9]: 1.31 to 1.5
- fold induction at 4 µM [1, 10]: 1.31 to 1.5
- Kd [2]: < 0.1 µM
- IC50 [3]: < 0.1 µM
- fold induction at 0.37 µM [4]: > 4.01
- fold induction at 1.11 µM [4]: > 4.01
- fold induction at 10 µM [4]: > 4.01

SMILES: Cn1cnnc1C(F)(F)[C@](C)(F)c1cccc(N2Cc3c(cc(C(=O)N4CC[C@H](O)C4)cc3C(F)(F)F)C2=O)c1 [Compound 438, 6-((S)-3-hydroxypyrrolidine-1-carbonyl)-2-(3-((R)-1,1,2-trifluoro-1-(4-methyl-4H-1,2,4-triazol-3-yl)propan-2-yl)phenyl)-4-(trifluoromethyl)isoindolin-1-one]
- fold induction at 0.3 µM [1, 8]: 1.01 to 1.3
- fold induction at 1 µM [1, 9]: 1.01 to 1.3
- fold induction at 4 µM [1, 10]: 1.31 to 1.5
- Kd [2]: 0.1 to 0.3 µM
- IC50 [3]: < 0.1 µM
- fold induction at 0.37 µM [4]: ≤ 2.5
- fold induction at 1.11 µM [4]: ≤ 2.5
- fold induction at 10 µM [4]: > 4.01

SMILES: Cn1cnnc1C(F)(F)[C@](C)(F)c1cccc(N2Cc3c(cc(CN4CC[C@@H](F)C4)cc3C(F)(F)F)C2=O)c1 [Compound 450]
- fold induction at 0.3 µM [1, 8]: 1.31 to 1.5
- fold induction at 1 µM [1, 9]: 1.51 to 1.75
- fold induction at 4 µM [1, 10]: 1.51 to 1.75
- Kd [2]: < 0.1 µM
- IC50 [3]: < 0.1 µM
- fold induction at 0.37 µM [4]: 2.51 to 4
- fold induction at 1.11 µM [4]: 2.51 to 4
- fold induction at 10 µM [4]: > 4.01

SMILES: COC1CN(Cc2cc3c(c(C(F)(F)F)c2)CN(c2cccc([C@@](C)(F)C(F)(F)c4nncn4C)c2)C3=O)C1 [Compound 452, (R)-6-((3-methoxyazetidin-1-yl)methyl)-2-(3-(1,1,2-trifluoro-1-(4-methyl-4H-1,2,4-triazol-3-yl)propan-2-yl)phenyl)-4-(trifluoromethyl)isoindolin-1-one]
- fold induction at 0.3 µM [1, 8]: 1.01 to 1.3
- fold induction at 1 µM [1, 9]: 1.31 to 1.5
- fold induction at 4 µM [1, 10]: 1.31 to 1.5
- Kd [2]: < 0.1 µM
- IC50 [3]: < 0.1 µM
- fold induction at 0.37 µM [4]: ≤ 2.5
- fold induction at 1.11 µM [4]: 2.51 to 4
- fold induction at 10 µM [4]: > 4.01

SMILES: C[C@H](Cc1nncn1C)c1cccc(NC(=O)c2cc3cc(N4CCNCC4)ccc3cn2)c1 [Compound 472, N-{3-[(2R)-1-(4-methyl-4H-1,2,4-triazol-3-yl)propan-2-yl]phenyl}-6-(piperazin-1-yl)isoquinoline-3-carboxamide]
- fold induction at 0.3 µM [1, 8]: 1.01 to 1.3
- fold induction at 1 µM [1, 9]: 1.01 to 1.3
- fold induction at 4 µM [1, 10]: 1.01 to 1.3
- Kd [2]: < 0.1 µM
- IC50 [3]: < 0.1 µM
- fold induction at 0.37 µM [4]: ≤ 2.5
- fold induction at 1.11 µM [4]: ≤ 2.5
- fold induction at 10 µM [4]: 2.51 to 4
